“Also recorded” adds a separate entry of the source. Where two headings read alike, the source gives them in different places.
Experiments:
[1] = tested on: healthy adults; experiment: Treatment-emergent adverse events, multiple ascending dose (MAD) cohorts; type: in vivo, human; details: n = 6
Method: The MAD cohorts also used a randomized, double-blind, placebo-controlled, sequential design. […] Safety was assessed by the incidence of adverse events (AEs) and by the incidence of reduced LVEF. Treatment-emergent AEs (TEAEs) were defined as AEs that began or increased after study drug administration. All AEs were coded using the Medical Dictionary for Regulatory Activities, version 21.1, and graded using the National Cancer Institute Common Terminology Criteria for AEs (version 4.03) 5-point severity scale.[18] Each AE was judged as either related or unrelated to the study drug by the treating investigator. Clinical laboratory tests were obtained at regular intervals in all cohorts.

[2] = tested on: healthy adults; experiment: Safety echocardiograms assessed by study cardiologist (AEs of decreased LVEF); type: in vivo, human; details: for LVEF deemed AE (decreased ejection fraction <45%): study cardiologist
Excerpt: Recommendations regarding dose escalation in the SAD cohorts—and in the MAD cohorts described in the next section—were made by the treating investigator (who was blinded to treatment group) and endorsed or not by the Dose Level Review Committee (DLRC), the members of which were unblinded. […] Criteria for escalation included that no more than 2 participants in a dose group developed an LVEF of <50% and that no individual developed an LVEF of <45%; escalation criteria are given in full in the Supplemental Appendix. For safety monitoring, participants in all cohorts had periodic echocardiograms, which were assessed by a cardiologist. In the SAD and MAD cohorts, echocardiograms were also reviewed by an echocardiography core laboratory for PD assessments, as described in the section on echocardiographic methods. In addition, participants in all cohorts were monitored with continuous 12-lead ECG recording using Holter monitors. For safety monitoring, a single 12-lead ECG was extracted at screening, predose, and periodically throughout follow-up and interpreted by the investigator. In the SAD, MAD, and CYP2D6-PM cohorts, cardiodynamic ECGs (triplicate 10-second, 12-lead ECG recordings) were obtained before the corresponding PK blood sample (see the Supplemental Appendix for full details on blood sampling), and ECG intervals were quantitated by qualified readers.

[3] = tested on: rat and dog; details: cited from earlier work
[4] = Plasma pharmacokinetics after single oral doses (SAD cohorts); type: in vivo, human; details: for half-life / Cmax / AUC / Tmax / AUC(0-inf) / Vd/F: human, plasma; for half-life: po; for AUC: read-out: AUC24; for Vd/F: read-out: Vz/F
Method: The SAD portion of the study used a randomized, double-blind, placebo-controlled, sequential, escalating dose design, in which participants received single ascending oral doses of the study drug. Seven cohorts were dosed in sequence (Figure 1).
For all study groups, blood samples for PK assessment were obtained predose, up to 12 times daily on day 1, and then at regular intervals throughout the study (see Supplemental Appendix for details). Standard noncompartmental methods were used to calculate PK parameters using Phoenix WinNonlin, version 7.0; actual sample collection times were used.
Statistical A nalysis of P harm acokinetic (PK) P aram eters
The PK analyses w ere int ended to assess single- dose kinetics, multiple-dose (steady state) […]
and the influence of food on the absorption and eli mination of aficamten.
For the SAD cohort, dos e proportionality of afi camten was evaluat ed using a power model on […]
and day 14 or 17. Several considerations were taken into account when assessing dose proportionality of the drug, such as results derived from the power model statistical analysis (e.g., the slope estimate and width of the 2- sided 95% confidence intervals [CIs ]), qualitative assessment specific to th e PK of the drug, and clinical relev ance. For th e SAD cohort, the […]
time curve (A UC)from time 0 to the time of the last measurable concentration(AUC last), AUC […]
plasma concent ration ( C max). […]
The statistical linear relationship between the ln-transformed PK parameters and the ln-transformed dos e was verified by including the quadratic (ln Dos e)2 and cubic (ln Dose) 3 effects.
The statistical linear relationship was established if the quadratic and cubi c effects were not […]
significant, but of such small magnitude that they were not clinically relevant. The dose-proportionality analysis was performed using SAS® PROC MIXED.

[5] = SAD 40 mg, one participant, 6 h after drug dose
[6] = SAD 50 mg, one participant, 4 h after drug dose
[7] = SAD 75 mg, single participant, 4 h after drug dose
[8] = single oral dose 1 mg, geometric mean (geometric CV%), n = 6
[9] = single oral dose 3 mg, geometric mean (geometric CV%), n = 6
[10] = single oral dose 3 mg, mean ± SD, n = 5
[11] = single oral dose 10 mg, mean ± SD, n = 4
[12] = single oral dose 25 mg, geometric mean (geometric CV%), n = 6
[13] = single oral dose 25 mg, mean ± SD, n = 6
[14] = single oral dose 40 mg, geometric mean (geometric CV%), n = 6
[15] = single oral dose 40 mg, mean ± SD, n = 5
[16] = single oral dose 50 mg, geometric mean (geometric CV%), n = 11
[17] = single oral dose 50 mg, mean ± SD, n = 9

## CCc1nc(-c2ccc3c(c2)CC[C@H]3NC(=O)c2cnn(C)c2)no1 [Aficamten]
[1]; MAD 5 mg qd × 14 d
  Participants with any TEAE: 1 (17) n (%)
  TEAE: Chapped lips: 1 (17) n (%)
  TEAE: Cough: 1 (17) n (%)
  TEAE: Salivary hypersecretion: 1 (17) n (%)
[1]; MAD 10 mg qd × 14 d
  Participants with any TEAE: 2 (33) n (%)
  TEAE: Headache: 1 (17) n (%)
  TEAE: Upper respiratory tract infection: 1 (17) n (%)
[2]; 1 each in SAD 40-mg, 50-mg, and 75-mg cohorts
  Participants with echocardiogram-related AEs of decreased LVEF of <45%: 3 participants
[2]; MAD, CYP2D6-PM, and food-effect cohorts
  AEs of decreased ejection fraction of <45%: no echocardiographic AEs
[2]; SAD 40 mg, one participant
  Grade of AE of decreased ejection fraction: 1 (mild)
  Onset of AE of decreased ejection fraction (time after drug dose): 1.4 h
  LVEF deemed AE (decreased ejection fraction <45%): 42.2%
[2]; [5]
  LVEF recorded at resolution of AE: 58.4%
  Time from onset to resolution of AE of decreased ejection fraction: 4.6 h
[2]; SAD 50 mg
  Decrease in LVEF of 1 participant after cohort expansion: > 15%
  LVEF of 1 participant after cohort expansion: < 45%
[2]; SAD 50 mg, initial cohort
  Postdose LVEF of 1 participant (<50%): 46.2%
[2]; SAD 50 mg, one participant
  Grade of AE of decreased ejection fraction: 1 (mild)
  Onset of AE of decreased ejection fraction (time after drug dose): 1.5 h
  LVEF deemed AE (decreased ejection fraction <45%): 42.1%
[2]; [6]
  LVEF recorded at resolution of AE: 50.2%
  Time from onset to resolution of AE of decreased ejection fraction: 2.5 h
[2]; SAD 75 mg
  Postdose LVEF of the sentinel participant: < 45%
[2]; SAD 75 mg, […] postdose
  Reduction in LVEF of the single participant: 31.5%
[2]; SAD 75 mg, single participant
  Grade of AE of decreased ejection fraction: 1 (mild)
  Onset of AE of decreased ejection fraction (time after drug dose): 1.5 h
[2]; [7]
  LVEF recorded at resolution of AE: 51.9%
  Time from onset to resolution of AE of decreased ejection fraction: 2.5 h
[2]; SAD 75 mg, single participant, […] postdose
  LVEF deemed AE (decreased ejection fraction <45%): 34.6%
[2]; SAD 40, 50, 75 mg
  Time to resolution of AEs of decreased LVEF (next echocardiogram assessment): 2.5 to 4.6 h
[3]; comparison in rats and dogs
  Exposure-response relationship shallower than that of mavacamten: roughly 3 fold
[3]; rat and dog
  Ventricular contractility: reduces ventricular contractility in a dose- and exposure-dependent manner
[4]; 3 mg, single oral dose 3 mg, mean ± SD, n = 5, read-out: t1/2 (converted)
  half-life: 3.13 ± 0.908 days
[4]; 10 mg, single oral dose 10 mg (extensive metabolizers), mean ± SD, n = 4, read-out: t1/2 (converted)
  half-life: 3.54 days
[4]; 25 mg, single oral dose 25 mg, mean ± SD, n = 6, read-out: t1/2 (converted)
  half-life: 3.33 ± 0.417 days
[4]; 40 mg, single oral dose 40 mg, mean ± SD, n = 4, read-out: t1/2 (converted)
  half-life: 3.3 ± 0.771 days
[4]; 50 mg, single oral dose 50 mg, mean ± SD, n = 9, read-out: t1/2 (converted)
  half-life: 3.35 ± 0.621 days
[4]; single oral doses, read-out: Mean half-life, range across single-dose cohorts
  half-life: 3.12 to 3.54 days
[4]; [8]
  Cmax: 5.8 ng/mL
  AUC: 50 ng·h/mL
[4]; single oral dose 1 mg, median (range), n = 6, read-out: Tmax
  Tmax: 1 h
[4]; single oral dose 3 mg, geometric mean (geometric CV%), n = 5
  AUC(0-inf): 823 ng·h/mL
[4]; [9]
  Cmax: 26.1 ng/mL
  AUC: 174 ng·h/mL
[4]; [10]
  Vd/F: 393 ± 122 L
  CL/F: 4.2 ± 3.1 L/h
[4]; single oral dose 3 mg, median (range), n = 6, read-out: Tmax
  Tmax: 1.3 h
[4]; single oral dose 10 mg (extensive metabolizers), geometric mean (geometric CV%), n = 6
  AUC: 679 ng·h/mL
[4]; single oral dose 10 mg, geometric mean (geometric CV%), n = 4
  AUC(0-inf): 3430 ng·h/mL
[4]; single oral dose 10 mg, geometric mean (geometric CV%), n = 6
  Cmax: 70.5 ng/mL
[4]; [11]
  Vd/F: 362 ± 108 L
  CL/F: 3.0 ± 0.7 L/h
[4]; single oral dose 10 mg, median (range), n = 6, read-out: Tmax
  Tmax: 2.8 h
[4]; [12]
  AUC(0-inf): 7110 ng·h/mL
  Cmax: 193 ng/mL
  AUC: 1490 ng·h/mL
[4]; [13]
  Vd/F: 405 ± 56.6 L
  CL/F: 3.6 ± 0.5 L/h
[4]; single oral dose 25 mg, median (range), n = 6, read-out: Tmax
  Tmax: 1.8 h
[4]; single oral dose 40 mg, geometric mean (geometric CV%), n = 5
  AUC(0-inf): 11900 ng·h/mL
[4]; [14]
  Cmax: 383 ng/mL
  AUC: 2530 ng·h/mL
[4]; [15]
  Vd/F: 382 ± 66.9 L
  CL/F: 3.4 ± 0.6 L/h
[4]; single oral dose 40 mg, median (range), n = 6, read-out: Tmax
  Tmax: 1 h
[4]; single oral dose 50 mg, geometric mean (geometric CV%), n = 9
  AUC(0-inf): 13700 ng·h/mL
[4]; [16]
  Cmax: 359 ng/mL
  AUC: 2830 ng·h/mL
[4]; [17]
  Vd/F: 431 ± 123 L
  CL/F: 3.8 ± 1.1 L/h
[4]; single oral dose 50 mg, median (range), n = 11, read-out: Tmax
  Tmax: 1 h
[4]; single oral dose 75 mg, median (range), n = 1, read-out: Tmax
  Tmax: 0.5 h
[4]; single oral dose 75 mg, n = 1
  Cmax: 1220 ng/mL
  AUC: 4560 ng·h/mL
[4]; single oral doses 1 to 75 mg, read-out: Median time to reach peak concentrations, range across doses
  Tmax: 0.5 to 2.76 h
[4]; single oral dose 10 mg (extensive metabolizers), mean ± SD, n = 4
  t1/2: 84.7 ± 17.7 h
[4]; single oral doses
  Maximum time to maximum observed concentration across all participants: 4.0 h
[4]; single oral doses 1 to 50 mg
  Dose proportionality of Cmax and exposure: dose-proportional; also recorded: dose proportionality; also recorded: linear kinetics
